From the supplement of paper PMC10307832

Assays:
Assay in all cases: relative viability (nuclei count vs DMSO), 5 days (fraction); higher = more cells survive
[1] = compound: COc1cc2nc(N3CCCN(C)CC3)nc(NC3CCN(Cc4ccccc4)CC3)c2cc1OC + N=C(N)NC(=N)NCCc1ccccc1 [Phenformin] (partner 250 µM)
Summary of the method: (§1)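 Cells from lung cancer lines were seeded into 1536-well plates and, one day later, dosed by pin tool. Treatments were either a single drug or a fixed dose of an anchor drug with five library-drug doses (not always all listed) in √10 steps. After 5 days, nuclei were stained in a one-step fixation (final 0.05% Triton X-100, 1% formaldehyde, 1 ug/ml Hoechst) and counted on 4× images, and relative viability is the treated-to-vehicle nuclei ratio, as the median of duplicate plates.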

[2] = compound: COc1cc2nc(N3CCCN(C)CC3)nc(NC3CCN(Cc4ccccc4)CC3)c2cc1OC + COc1cccc2cc(-c3nc([C@H]4CC[C@H](C(=O)O)CC4)n4ncnc(N)c34)[nH]c12 [OSI-027] (partner 0.5 µM)
Summary of the method: as §1

AZD6482 + Luminespib = compound: Cc1cc([C@@H](C)Nc2ccccc2C(=O)O)c2nc(N3CCOCC3)cc(=O)n2c1 [AZD6482] + CCNC(=O)c1noc(-c2cc(C(C)C)c(O)cc2O)c1-c1ccc(CN2CCOCC2)cc1 [Luminespib] (partner 0.01 µM)
Summary of the method: as §1

[3] = compound: COc1cc2nc(N3CCCN(C)CC3)nc(NC3CCN(Cc4ccccc4)CC3)c2cc1OC + O=C(c1cc(Cc2n[nH]c(=O)c3ccccc23)ccc1F)N1CCN(C(=O)C2CC2)CC1 [Olaparib] (partner 8 µM)
Summary of the method: as §1

Cell Line: UMC-11
- relative viability ([1]; first compound 0.2 µM): 0.322
- relative viability ([1]; first compound 0.6325 µM): 0.346
- relative viability ([1]; first compound 2 µM): 0.352
- relative viability ([1]; first compound 6.325 µM): 0.243
- relative viability ([2]; first compound 0.2 µM): 0.534
- relative viability ([2]; first compound 0.6325 µM): 0.461
- relative viability ([2]; first compound 2 µM): 0.398
- relative viability ([2]; first compound 6.325 µM): 0.284
- relative viability (AZD6482 + Luminespib; first compound 0.08 µM): 0.986
- relative viability (AZD6482 + Luminespib; first compound 0.253 µM): 0.994
- relative viability (AZD6482 + Luminespib; first compound 0.8 µM): 0.929
- relative viability (AZD6482 + Luminespib; first compound 2.53 µM): 0.869
- relative viability (AZD6482 + Luminespib; first compound 8 µM): 1.26
- relative viability ([3]; first compound 0.2 µM): 0.38
- relative viability ([3]; first compound 0.6325 µM): 0.391
- relative viability ([3]; first compound 2 µM): 0.385
- relative viability ([3]; first compound 6.325 µM): 0.221
